Like-named read-outs stand apart in the source and are kept apart here.
What was measured:
[1] = tested on: human erythroid progenitors (CFU-E, BFU-E); assay: Erythroid CFU assay (colony forming cell assay, bone marrow); type: cell-based; details: 14 days in culture
Method: (§1) Compounds were tested to evaluate the potential effects on human erythroid and myeloid progenitors using colony forming cell assays. Clonogenic progenitors of human erythroid (CFU-E, BFU-E), granulocyte-monocyte (CFU-GM) and multipotential (CFU-GEMM) lineages were assessed in a semi-solid methylcellulose-based media formulation containing rhlL-3 (10 ng/mL), rhGM-SCF (10 ng/mL), rhSCF (50 ng/mL) and Epo (3 U/mL).
(§2) Normal human bone marrow light density cells derived from normal bone marrow (NorCal Biologics, California), were stored in the gaseous phase of liquid nitrogen (−152° C.) until required for the assay. On the day of the experiment, the cells were thawed rapidly, the contents of each vial was diluted in 10 mL of Iscove's modified Dulbecco's medium containing 10% fetal bovine serum (IMDM+10% FBS) and washed by centrifugation (approximately 1200 r.p.m. for 10 minutes, room temperature). The supernatant was discarded and the cell pellets resuspended in a known volume of IMDM+10% FBS. A cell count (3% glacial acetic acid) and viability assessment (trypan blue exclusion test) was performed for the bone marrow sample.
(§3) On the day of the experiment, the compounds were dissolved in DMSO to a stock concentration of 10 mM. Serial dilutions were prepared from the stock concentration to achieve concentrations of 2 and 0.4 mM. When added to the methylcellulose-based media at 1:1000 (v/v), the final test concentrations of 10, 2 and 0.4 μM were achieved. Additionally, 5-FU was evaluated at 1.0, 0.1 and 0.01 μg/mL.
(§4) Clonogenic progenitors of the human erythroid (CFU-E and BFU-E) and myeloid (CFU-GM) lineages were set up in the methylcellulose-based media formulations described above. All compounds were added to the medium to give the final desired concentrations (10, 2 and 0.4 μM). 5-Fluorouracil (Sigma Aldrich) was used as a positive control for progenitor proliferation (inhibition of colony growth) and was introduced to the human bone marrow cultures at 1.0, 0.1, and 0.01 μg/mL. Solvent control cultures (containing no compound but 0.1% DMSO) as well as standard controls (containing no compound and no DMSO) were also initiated.
(§5) Human myeloid and erythroid progenitor assays were initiated at 2.0×10^4 cells per culture. Following 14 days in culture, myeloid and erythroid colonies were assessed microscopically and scored by trained personnel. The colonies were divided into the following categories based on size and morphology: CFU-E, BFU-E, CFU-GM and CFU-GEMM.
(§6) The mean±one standard deviation of three replicate cultures was calculated for progenitors of each category (CFU-E, BFU-E, etc.). Two-tailed t-tests were performed to assess if there was a difference in the number of colonies generated between solvent control and treated cultures. Due to the potential subjectivity of colony enumeration, a p value of less than 0.01 is deemed significant. To calculate the concentration of 50% inhibition of colony growth (IC50) for each compound, a dose response curve was generated plotting the log of the compound concentration versus the percentage of control colony growth using XLfit software (IDBS). The concentration of 50% inhibition of colony growth (IC50) was calculated based on the sigmoid curve fit using Dose-Response, One-Site Model formula: y=A+[(B−A)/(1+((C/x)^D))], where A=the initial value (baseline response), B=maximum response, C=center (drug concentration that provokes a response halfway between A and B) and D=slope of the curve at midpoint. Further, plots and additional dose response curves were generated using GraphPad Prism 7.0.
(§7) Erythroid (CFU-E and BFU-E), myeloid (CFU-GM) and multi-potential (CFU-GEMM) colony enumeration was performed by trained personnel. The distribution of colony types as well as general colony and cellular morphology was analyzed. For statistical analysis colony numbers in compound treated cultures were compared to the solvent control cultures. […]

[2] = tested on: human myeloid progenitors (CFU-GM); assay: Myeloid CFU assay (colony forming cell assay, bone marrow); type: cell-based; details: 14 days in culture
Method: as §1, §2, §3, §4, §5, §6, §7

[3] = Brain and plasma exposure following IV and PO administration to mice; type: in vivo; details: mice; for Projected free brain @ 10 mpk / Brain Cmax @ 10 mpk: 10 mg/kg PO; for half-life / clearance: mouse, plasma; for clearance: read-out: IV PK Cl (converted)
Method: Compounds were dosed in mice at either 10 mg/kg or 30 mg/kg PO, and were dosed at 1 mg/kg IV. Three animals for collection at each time point for plasma via bleeding at 0.25, 0.5, 1, 4, 12 and 24 h. Terminal bleeding for plasma and sampling for brain at 0.25, 0.5, 1, 4, 12 and 24 h (also three animals per brain exposure time point group). Total of six time points for plasma and six time points for brain.
Plasma: The animal was restrained manually at the designated time points, approximately 150 μL blood/time point was collected into K2EDTA tube via retro orbital puncture or cardiac puncture under anesthesia with Isoflurane. The blood sample was centrifuged (2000 g, 4° C., 5 min) to generate plasma within 30 min after bleeding.
Brain: At the designated time points, a mid-line incision was made in the animals scalp and the skin was retracted. Using small bone cutters and rongeurs, removed the skull overlying the brain. Removed the brain using a spatula and rinse with cold saline. Placed the brain in screw-top tubes, and then stored the tubes under −70° C. until analysis.

HDAC2 [4] = target: T1, HDAC2 (Homo sapiens (Human), UniProt Q92769); assay: HDAC2 enzymatic inhibition assay in SY5Y cell lysate (HDAC-Glo 2); type: cell-based; details: SH-SY5Y cells, five hours incubation
T1 sequence (Q92769 whole entry): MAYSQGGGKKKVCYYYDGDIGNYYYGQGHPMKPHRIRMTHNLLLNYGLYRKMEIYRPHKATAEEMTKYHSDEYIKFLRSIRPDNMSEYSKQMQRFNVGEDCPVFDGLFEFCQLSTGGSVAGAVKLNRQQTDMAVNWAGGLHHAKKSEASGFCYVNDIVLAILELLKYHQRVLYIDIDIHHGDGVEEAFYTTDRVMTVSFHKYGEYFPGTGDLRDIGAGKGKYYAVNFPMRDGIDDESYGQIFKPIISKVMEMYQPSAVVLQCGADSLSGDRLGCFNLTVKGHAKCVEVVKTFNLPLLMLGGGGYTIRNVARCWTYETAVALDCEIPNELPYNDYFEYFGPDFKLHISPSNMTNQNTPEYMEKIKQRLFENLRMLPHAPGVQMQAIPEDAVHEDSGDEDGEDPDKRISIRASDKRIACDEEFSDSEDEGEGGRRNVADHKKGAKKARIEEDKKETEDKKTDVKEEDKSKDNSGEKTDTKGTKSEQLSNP
Method: SH-SY5Y cells (Sigma) were cultured in Eagle's Modified Essential Medium supplemented with 10% fetal bovine serum and pen/strep. Twenty-four hours prior to compound dosing 20 uL of cells were plated in white 384 well plates at a density of 1,500 cells/well. Compounds were serially diluted in neat DMSO and then diluted 1:100 v/v into media without FBS and mixed. Media was removed from the plated cells and the diluted compounds in serum free media (1% v/v final DMSO) were added and incubated at 37.0 for five hours. Ten uL of HDAC-Glo 2 reagent with 0.1% Triton X-100 was then added, the plate was mixed and allowed to develop at room temperature for 100 minutes. Plates were then read with a Spectramax LMax luminometer employing a 0.4 s integration time. Dose response curves were constructed with normalized data where CI-994 at 100 uM was defined as 100% inhibition and DMSO alone as 0% inhibition.

HDAC2 [5] = target: T1, HDAC2; assay: HDAC2 enzymatic assay (Caliper LabChip, peptide deacetylation); type: biochemical; details: 17 hours, 25° C.
Method: The following describes an assay protocol for measuring the deacetylation of a peptide substrate by the enzymes HDAC2 or HDAC1. Enzyme, substrate, and cofactors are combined in a well of a microtiter plate and incubated for […] at 25° C. At the end of the incubation, the reaction is quenched by the addition of an SDS-containing buffer. Substrate and product are separated and quantified electrophoretically using the microfluidic-based LabChip 3000 Drug Discovery System from Caliper Life Sciences. The peptide substrate used in this assay is FAM-TSRHK(AC)KL-CONH2 (FAM is carboxyfluorescein). Peptide should be >98% purity by Capillary Electrophoresis. • 1. To a well of a 384-well plate, add 5 μL of 2× enzyme buffer. Using Labcyte Echo 550, add 100 nl compound. Enzyme and compound may be pre-incubated at this time if desired. • 2. Add 5 μL of 2× substrate buffer. • 3. Incubate plate at 25° C. for 17 hours. • 4. Terminate reaction by adding 40 μL of 1.55× stop buffer. • 5. Create job on a Caliper LabChip® 3000 Drug Discovery System. • 6. […]
Substrate and product peptides present in each sample are separated electrophoretically using the LabChip 3000 capillary electrophoresis instrument. As substrate and product peptides are separated, two peaks of fluorescence are observed. Change in the relative fluorescence intensity of the substrate and product peaks is the parameter measured, reflecting enzyme activity. Capillary electrophoregramms (RDA acquisition files) are analyzed using HTS Well Analyzer software (Caliper Life Sciences). The […] in each sample is determined as the product to sum ratio (PSR): P/(S+P), where P is the peak height of the product peptide and S is the peak height of the substrate peptide. For each compound, enzyme activity is measured at various concentrations (12 concentrations of compound spaced by 3× dilution intervals). […]
The IC50 values of inhibitors are determined by fitting the inhibition curves (Pinh versus inhibitor concentration) by 4 parameter sigmoidal dose-response model using XLfit 4 software (IBDS). […]

HDAC1 = HDAC1 (Homo sapiens (Human), UniProt Q13547); assay: HDAC1 enzymatic assay (Caliper LabChip, peptide deacetylation); type: biochemical; details: 17 hours, 25° C.
HDAC1, sequence (Q13547 whole entry): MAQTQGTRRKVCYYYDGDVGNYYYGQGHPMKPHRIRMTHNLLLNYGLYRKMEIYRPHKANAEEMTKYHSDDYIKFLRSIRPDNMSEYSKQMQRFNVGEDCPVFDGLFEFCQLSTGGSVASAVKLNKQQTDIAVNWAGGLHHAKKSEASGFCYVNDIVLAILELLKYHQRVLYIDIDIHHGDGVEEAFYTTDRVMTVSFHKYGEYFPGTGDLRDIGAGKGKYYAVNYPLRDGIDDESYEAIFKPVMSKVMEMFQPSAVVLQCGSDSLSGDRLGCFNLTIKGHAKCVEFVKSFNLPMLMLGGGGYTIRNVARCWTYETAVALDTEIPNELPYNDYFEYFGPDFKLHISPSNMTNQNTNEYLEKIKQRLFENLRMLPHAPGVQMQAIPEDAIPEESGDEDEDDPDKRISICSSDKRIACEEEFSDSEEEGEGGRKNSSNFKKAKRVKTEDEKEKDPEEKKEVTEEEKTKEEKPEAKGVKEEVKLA
Method: The following describes an assay protocol for measuring the deacetylation of a peptide substrate by the enzymes HDAC2 or HDAC1. Enzyme, substrate, and cofactors are combined in a well of a microtiter plate and incubated for […] at 25° C. At the end of the incubation, the reaction is quenched by the addition of an SDS-containing buffer. Substrate and product are separated and quantified electrophoretically using the microfluidic-based LabChip 3000 Drug Discovery System from Caliper Life Sciences. The peptide substrate used in this assay is FAM-TSRHK(AC)KL-CONH2 (FAM is carboxyfluorescein). Peptide should be >98% purity by Capillary Electrophoresis. • 1. To a well of a 384-well plate, add 5 μL of 2× enzyme buffer. Using Labcyte Echo 550, add 100 nl compound. Enzyme and compound may be pre-incubated at this time if desired. • 2. Add 5 μL of 2× substrate buffer. • 3. Incubate plate at 25° C. for 17 hours. • 4. Terminate reaction by adding 40 μL of 1.55× stop buffer. • 5. Create job on a Caliper LabChip® 3000 Drug Discovery System. • 6. Load the plate and start electrophoresis using blue laser (480 nm) for excitation and green CCD (520 nm) for detection (CCD2). Reaction time=17 hours; Reaction temperature=25° C.
1% DMSO (from compound) 1 μM FAM-TSRHK(AC)KL-CONH2 5 nM HDAC Enzyme (specific activity may vary from lot-to-lot, and enzyme concentration may need to be adjusted to yield˜10-20% conversion of substrate to product).
Substrate and product peptides present in each sample are separated electrophoretically using the LabChip 3000 capillary electrophoresis instrument. As substrate and product peptides are separated, two peaks of fluorescence are observed. Change in the relative fluorescence intensity of the substrate and product peaks is the parameter measured, reflecting enzyme activity. Capillary electrophoregramms (RDA acquisition files) are analyzed using HTS Well Analyzer software (Caliper Life Sciences). The […] in each sample is determined as the product to sum ratio (PSR): P/(S+P), where P is the peak height of the product peptide and S is the peak height of the substrate peptide. For each compound, enzyme activity is measured at various concentrations (12 concentrations of compound spaced by 3× dilution intervals). Negative control samples (0%-inhibition in the absence of inhibitor) and positive control samples (100%-inhibition, in the presence of 20 mM EDTA) are assembled in replicates of four and are used to calculate %-inhibition values for each compound at each concentration. Percent inhibition (Pinh) is determined using following equation: Pinh=(PSR0%−PSRinh)/(PSR0%−PSR100%)*100, where PSRinh is the product sum ratio in the presence of inhibitor, PSR0% is the average product sum ration in the absence of inhibitor and PSR100% is the average product sum ratio in 100%-inhibition control samples.
The IC50 values of inhibitors are determined by fitting the inhibition curves (Pinh versus inhibitor concentration) by 4 parameter sigmoidal dose-response model using XLfit 4 software (IBDS).
In the table, “A” indicates a […] of between 0.1 μM and 0.5 μM and “B” a Kd value of greater than 0.5 μM and less than or equal to 5.0 μM.

[6] = iv, 1 mg/kg, 1 mg/kg IV, read-out: IV PK T1/2 (converted)
[7] = po, 10 mg/kg, PO, read-out: PO T1/2 (converted)

| Erythroid % control @ 10 uM dose [1] | Myeloid % control @ 10 uM dose [2] | IC50 (HDAC2 [4]) | half-life [3, 6] | half-life [3, 7] | clearance ([3]; 1 mg/kg IV) | SMILES | other results |
| --- | --- | --- | --- | --- | --- | --- | --- |
| 47.1% | 83.9% | – | – | – | – | Nc1ccc(-c2ccc(F)cc2)nc1NC(=O)N1Cc2cncnc2C1 [Comparator 1, reference compound] | Projected free brain @ 10 mpk (uM) (*scaled for comparison) ([3]; dosed 30 mg/kg PO, scaled to 10 mg/kg PO): 0.111* uM; Brain Cmax @ 10 mpk ng/g (*scaled for comparison) ([3]; dosed 30 mg/kg PO, scaled to 10 mg/kg PO, brain): 158* ng/g |
| – | – | 100 to 1000 nM | – | – | – | Nc1ccc(-c2cccnc2)nc1NC(=O)N1Cc2cnc(CC(F)F)cc2C1 [Compound 15] | – |
| – | – | > 1500 nM | – | – | – | Nc1ccc(-c2cccnc2)nc1NC(=O)N1Cc2cnc(C(F)F)cc2C1 [Compound 16] | – |
| – | – | 100 to 1000 nM | 3.06 h | 2.95 h | 28.5 mL/min/kg | Cc1nc2c(n1C)CN(C(=O)Nc1nc(-c3ccc(F)cc3)ccc1N)C2 [Compound 7] | Projected free brain @ 10 mpk [3]: 0.050 µM; Brain Cmax @ 10 mpk ([3]; brain): 102 ng/g |
| – | – | – | 0.152 h | 0.557 h | 139 mL/min/kg | Nc1ccc(-c2cccs2)nc1NC(=O)N1Cc2cncnc2C1 [Comparator 6] | – |
| 94% | 103% | 100 to 1000 nM | 7.53 h | 2.9 h | 17.8 mL/min/kg | Cn1cc2c(n1)CN(C(=O)Nc1nc(-c3cccnc3)ccc1N)C2 [Compound 11] | Projected free brain @ 10 mpk [3]: 0.664 µM; Brain Cmax @ 10 mpk ([3]; brain): 369 ng/g |
| 22.9% | 58.9% | – | – | – | – | COCc1cc2c(cn1)CN(C(=O)Nc1nc(-c3ccc(F)cc3)ccc1N)C2 [Comparator 5, reference compound] | – |
| 25.7% | 66.1% | – | – | – | – | Cc1cc2c(cn1)CN(C(=O)Nc1nc(-c3ccc(F)cc3)ccc1N)C2 [Comparator 3, reference compound] | – |
| 15.7% | 30.4% | – | – | – | – | Cn1cc2c(n1)CN(C(=O)Nc1nc(-c3ccc(F)cc3)ccc1N)C2 [Comparator 2, reference compound] | – |
| – | – | 100 to 1000 nM | – | – | – | Nc1ccc(-c2ccc(F)cc2F)nc1NC(=O)N1Cc2cn(C3COC3)nc2C1 [Compound 6] | IC50 (HDAC2 [5]): 500 to 5000 nM; IC50 (HDAC1): 500 to 5000 nM |
| 53% | 96% | 100 to 1000 nM | 1.86 h | 2.12 h | 8.93 mL/min/kg | Cc1ncc(-c2ccc(N)c(NC(=O)N3Cc4cn(C)nc4C3)n2)s1 [Compound 4] | Projected free brain @ 10 mpk [3]: 0.479 µM; Brain Cmax @ 10 mpk ([3]; brain): 324 ng/g |

From patent US10793567B2, “Bicyclic inhibitors of histone deacetylase” (Rodin Therapeutics, Inc., priority 2017, dated 2020)
